Data: ChEMBL document CHEMBL4665915, “Evaluation of a Series of Lipidated Tucaresol Adjuvants in a Hepatitis C Virus Vaccine Model” (2020)
Active and inactive are the calls of the source. No cut-off for these calls is given here.

Columns and labels:
Mus musculus [1] = species on record: Mus musculus; assay: Immuno-adjuvant activity in E2deltaTM3-immunized BALB/cj mouse assessed as neutralization of HCV H77 genotype 1a pseudotyped virus particle with pooled immune sera at 1 ug/ml; type: functional; settings: dose 1 µg/ml
Mus musculus [2] = assay: Immuno-adjuvant activity in E2deltaTM3-immunized BALB/cj mouse assessed as potentiation of antibody response to E1E2 by measuring increase in serum anti-E1E2 IgG level administered subcutaneously as prime injection at 200 ug and 800 ug compound split over the remaining four days to give final dose of 1 mg followed by booster injection at four week intervals on day 28, 56 and 84 and measured at […] post-booster injection on days 34, 62 and 90 by ELISA; type: functional, organism-based

Row | SMILES | Activity (Mus musculus [1]) [%] | Activity (Mus musculus [2])
1 | CCCCCCCCCCCCCCCCOc1ccc(O)c(O)c1C=O | 71 | Active
2 | CCCCCCCCCCCCCCCCOc1cccc(O)c1C=O | 59 | Active
3 | CCCCCCCCCCCCCCCCOc1cc(O)ccc1C=O | 78 | Active
4 | O=Cc1c(O)cccc1OCc1ccc(C(=O)O)cc1 [TUCARESOL] | 61 | –
